# Columns and labels:
# [1] = system: Botrytis cinerea AARF-033; experiment: Antifungal activity test against rice Botrytis cinerea (96 well microplate, conidia in glucose broth); assay type: cell-based; conditions: AARF033, 96 h, conidia 1×10^4 conidia/ml, stationary culturing for 4 days at 25° C.
# Excerpt: Test specimens (compound (4a-2) and compound (4b-2)), (compound (4a-3) and compound (4b-3)), and reference compounds i.e. iprodione and Captan, were each independently dissolved in dimethyl sulfoxide (DMSO) and adjusted to a concentration of 10,000 ppm. The test solution was dispensed 2 μ/ml in a flat-bottomed 96 well microplate, and then, conidia of rice Botrytis cinerea (Botrytis cinerea AARF-033) cultured on glucose agar medium, suspended in glucose broth and adjusted to 1×10^4 conidia/ml, were dispensed 198 μ/mL, followed by stirring by a micromixer. At that time, the concentrations of the test specimen and the reference compound, were 100 ppm. Thereafter, the antimicrobial activities were evaluated by stationary culturing for 4 days at 25° C.
# [2] = system: Pyricularia oryzae (Magnaporthe grisea); experiment: microbe, parasite or virus in culture; assay type: cell-based; conditions: read-out: Magnaporthe grisea inhibition
compound,measurement,setting,value
O=C1C2CC=CCC2C(=O)N1SC(Cl)(Cl)Cl (stereo not shown) [Captan],inhibition at 100 ppm,[1],≥ 95%
"CO/N=C(/C1=NOCCO1)c1ccccc1Oc1ncnc(Oc2ccccc2Cl)c1F [Fluoxastrobin, fluoxastrobin]",inhibition at 100 ppm,[2],≥ 95%
"CCCCNC(=O)n1c(NC(=O)OC)nc2ccccc21 [Benomyl, benomyl]",inhibition at 100 ppm,[2],≥ 95%
"CC(C)NC(=O)N1CC(=O)N(c2cc(Cl)cc(Cl)c2)C1=O [Iprodione, iprodione]",inhibition at 100 ppm,[1],≥ 95%

# Source: patent publication US20160295864A1 (priority 2014, published 2016)
